The subject of experiment [1] is C57B/6 mice, transient focal cerebral ischemia (MCAo). The conditions noted are these: 1 mg/kg/day for 3 days from onset of acute stroke; previously shown; cited from earlier work.
The test system of experiment [2] is 45 receptors, channels and transporters. In words: Off-target binding at 45 receptors, channels and transporters (NIMH PDSP). Particulars: at 10 μM.
In experiment [3] the test system is C57B/6 mice, transient focal cerebral ischemia (MCAo). Particulars: mouse, in vivo.
A further experiment addresses T1, hP2X1R (Homo sapiens, UniProt P51575).
T1 construct: expressed in transfected cells; host or cells: CHO-K1
T1 sequence (P51575 1-399): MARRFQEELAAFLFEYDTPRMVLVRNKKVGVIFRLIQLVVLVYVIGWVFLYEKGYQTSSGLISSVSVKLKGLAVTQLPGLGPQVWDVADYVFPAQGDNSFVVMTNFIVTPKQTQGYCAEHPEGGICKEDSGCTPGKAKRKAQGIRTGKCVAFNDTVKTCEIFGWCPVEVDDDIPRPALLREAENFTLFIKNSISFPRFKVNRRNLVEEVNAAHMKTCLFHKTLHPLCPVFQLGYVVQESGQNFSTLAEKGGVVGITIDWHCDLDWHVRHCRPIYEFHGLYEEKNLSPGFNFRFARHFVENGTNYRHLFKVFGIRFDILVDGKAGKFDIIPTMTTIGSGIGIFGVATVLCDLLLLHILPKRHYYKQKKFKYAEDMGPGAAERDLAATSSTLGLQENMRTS
Put plainly: cell-based. The conditions noted are these: for inhibition at 30 µM: CHO-K1, percent inhibition at 30 μM, agonist α,β-MeATP 1.0 μM, read-out: hP2X1R % inhib.

For another experiment, the target named is T2, hP2X2/3R (Homo sapiens, UniProt P56373+Q9UBL9).
T2 construct: expressed in transfected cells; host or cells: CHO-K1
T2 sequence (Q9UBL9 1-471): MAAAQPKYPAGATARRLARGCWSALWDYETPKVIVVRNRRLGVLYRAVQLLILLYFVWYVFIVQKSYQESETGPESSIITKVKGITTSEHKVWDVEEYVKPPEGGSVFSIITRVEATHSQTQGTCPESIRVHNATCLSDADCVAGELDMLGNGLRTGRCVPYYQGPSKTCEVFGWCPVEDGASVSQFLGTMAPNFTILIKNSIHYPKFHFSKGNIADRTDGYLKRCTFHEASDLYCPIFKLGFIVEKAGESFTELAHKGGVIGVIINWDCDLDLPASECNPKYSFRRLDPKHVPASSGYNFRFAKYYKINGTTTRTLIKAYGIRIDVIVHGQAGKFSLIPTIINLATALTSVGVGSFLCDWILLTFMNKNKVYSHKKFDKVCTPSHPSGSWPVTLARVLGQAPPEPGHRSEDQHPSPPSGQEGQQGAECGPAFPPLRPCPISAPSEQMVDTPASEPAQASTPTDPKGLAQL
T2 sequence (P56373 1-397): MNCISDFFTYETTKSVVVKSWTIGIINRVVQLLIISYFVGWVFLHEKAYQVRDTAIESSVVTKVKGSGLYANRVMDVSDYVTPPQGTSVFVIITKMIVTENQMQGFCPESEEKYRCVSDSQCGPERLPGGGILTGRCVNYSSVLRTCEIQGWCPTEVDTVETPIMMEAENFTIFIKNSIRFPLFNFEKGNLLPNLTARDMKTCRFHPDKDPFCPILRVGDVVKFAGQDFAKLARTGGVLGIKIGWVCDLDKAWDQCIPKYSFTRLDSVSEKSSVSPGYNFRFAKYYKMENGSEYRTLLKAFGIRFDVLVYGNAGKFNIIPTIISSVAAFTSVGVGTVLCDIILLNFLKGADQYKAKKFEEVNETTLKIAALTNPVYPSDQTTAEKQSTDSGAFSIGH
Put plainly: cell-based. It counts as cell-based. Particulars: for inhibition at 30 µM: CHO-K1, percent inhibition at 30 μM, agonist α,β-MeATP 5.0 μM, read-out: hP2X2/3R % inhib.

Another experiment addresses T3, hP2X3R (Homo sapiens, UniProt P56373).
T3 construct: expressed in transfected cells; host or cells: CHO-K1
T3 sequence (P56373 1-397): T2 sequence (P56373 1-397)
In words: cell-based. It counts as cell-based. The conditions noted are these: for inhibition at 30 µM: CHO-K1, percent inhibition at 30 μM, agonist α,β-MeATP 1.0 μM, read-out: hP2X3R % inhib.

In another experiment the target is T4, hP2X4R (Homo sapiens, UniProt Q99571).
T4 construct: expressed in transfected cells; host or cells: HEK-293
T4 sequence (Q99571 1-388): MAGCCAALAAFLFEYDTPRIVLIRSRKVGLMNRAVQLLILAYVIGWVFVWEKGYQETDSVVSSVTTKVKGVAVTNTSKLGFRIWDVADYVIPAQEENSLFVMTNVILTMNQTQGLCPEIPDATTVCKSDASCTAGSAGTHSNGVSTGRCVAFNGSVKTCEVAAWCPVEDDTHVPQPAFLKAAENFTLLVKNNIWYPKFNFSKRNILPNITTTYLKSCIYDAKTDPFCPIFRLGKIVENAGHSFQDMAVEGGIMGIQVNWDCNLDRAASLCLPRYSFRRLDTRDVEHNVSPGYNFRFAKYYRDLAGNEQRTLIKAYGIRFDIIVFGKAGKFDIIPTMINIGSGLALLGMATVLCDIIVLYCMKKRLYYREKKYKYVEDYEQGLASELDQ
In words: cell-based. The format is cell-based.

The next experiment concerns the target T5, D3 dopamine receptor (Homo sapiens, UniProt P35462).
T5 construct: NIMH Psychoactive Drug Screening program
Put plainly: Off-target binding, NIMH Psychoactive Drug Screening program. The conditions noted are these: read-out: inhibition of binding at D3 dopamine receptor.

Another experiment deals with T6, H2 histamine receptor (Homo sapiens, UniProt P25021).
T6 construct: NIMH Psychoactive Drug Screening program
T6 sequence (P25021 whole entry): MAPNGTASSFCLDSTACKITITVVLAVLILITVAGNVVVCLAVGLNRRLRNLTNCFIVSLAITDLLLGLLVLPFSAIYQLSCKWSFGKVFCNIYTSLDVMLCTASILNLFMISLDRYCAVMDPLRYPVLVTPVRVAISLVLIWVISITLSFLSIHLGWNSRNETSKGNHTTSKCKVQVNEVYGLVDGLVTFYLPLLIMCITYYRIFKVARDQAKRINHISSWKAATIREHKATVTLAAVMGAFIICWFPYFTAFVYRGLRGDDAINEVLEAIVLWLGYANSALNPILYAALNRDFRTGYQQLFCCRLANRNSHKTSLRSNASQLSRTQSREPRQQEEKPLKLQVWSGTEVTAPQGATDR
The experiment is described as above. The conditions noted are these: read-out: inhibition of binding at H2 histamine receptor.

For experiment [4], the system named is mice, LAD ligation ischemia/reperfusion. In words: Myocardial ischemia/reperfusion (LAD ligation), echocardiography. It counts as in vivo, mouse. The conditions noted are these: 2 mg/kg/day s.c. minipump 3 days at reperfusion after 60 min LAD occlusion, 2 weeks or 4 weeks post-I/R, vs vehicle.
Experiment [5] has as its system middle-aged mice after MCAo. The conditions noted are these: dose 3 mg/kg; four weeks after MCAo; vs Veh; listed as MRS 4719, 3 mg/kg.
In a further experiment the target is T7, mP2X4R (Mus musculus, UniProt Q9JJX6).
T7 sequence (Q9JJX6 1-388): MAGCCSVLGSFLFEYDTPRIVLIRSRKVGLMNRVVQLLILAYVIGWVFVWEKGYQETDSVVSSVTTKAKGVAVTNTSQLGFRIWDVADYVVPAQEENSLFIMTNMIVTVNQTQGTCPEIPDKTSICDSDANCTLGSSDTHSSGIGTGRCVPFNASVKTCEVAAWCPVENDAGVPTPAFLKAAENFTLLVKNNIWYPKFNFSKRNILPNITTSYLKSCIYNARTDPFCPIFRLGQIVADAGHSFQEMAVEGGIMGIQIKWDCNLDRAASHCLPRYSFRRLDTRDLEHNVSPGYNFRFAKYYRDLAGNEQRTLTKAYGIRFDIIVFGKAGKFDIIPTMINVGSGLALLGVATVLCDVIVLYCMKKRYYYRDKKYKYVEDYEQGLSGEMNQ
Particulars: compared with hP2X4R; cited from earlier work.

Another experiment concerns mouse. The conditions noted are these: cited from earlier work.

Here are results for 8 compounds from patent US20250360143A1, “COMPOSITIONS AND METHODS FOR PHA[…] OF STROKE AND […] REPERFUSION INJURY” (priority 2022, published 2025).

Structures are written as SMILES. “Also recorded” adds a separate entry of the source. Where a name gives a salt, the structure may show the parent alone. Read-outs that look alike come from different tables or passages of the source. Bounds are passed on as bounds.

T5 sequence (P35462 whole entry): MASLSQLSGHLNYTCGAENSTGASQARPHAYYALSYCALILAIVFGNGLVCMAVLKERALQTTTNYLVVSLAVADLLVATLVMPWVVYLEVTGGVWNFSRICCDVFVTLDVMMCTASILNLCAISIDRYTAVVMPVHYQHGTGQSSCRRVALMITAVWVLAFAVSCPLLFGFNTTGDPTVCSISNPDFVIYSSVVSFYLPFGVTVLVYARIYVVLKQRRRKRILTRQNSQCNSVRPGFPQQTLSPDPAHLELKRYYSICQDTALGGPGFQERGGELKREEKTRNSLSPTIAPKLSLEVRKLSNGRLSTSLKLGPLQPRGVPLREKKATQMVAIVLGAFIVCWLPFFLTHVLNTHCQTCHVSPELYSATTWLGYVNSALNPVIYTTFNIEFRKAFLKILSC

Consider `O=C1CN=C(c2cccc(Br)c2)c2oc3ccccc3c2N1` [Compound 5-BDBD, 5-(3-bromophenyl)-1,3-dihydro-2H-benzofuro[3,2-e]-1,4-diazepin-2-one], for which the stroke infarct size result in experiment [1] was “reduced stroke infarct size”.
As for `Cc1ccc2c3c(ccc2c1)N(c1cccc(-c2noc(=S)[nH]2)c1)C(=O)CC(=O)N3` [Compound 21c, 9-Methyl-5-(3-(5-thioxo-4,5-dihydro-1,2,4-oxadiazol-3-yl)phenyl)-1,5-dihydro-2H-naphtho[1,2-b][1,4]diazepine-2,4(3H)-dione], the “off-target interactions at 45 receptors, channels and transporters” value (shortened to “off-target interactions at 45 receptors”) in experiment [2] is listed as “no significant interactions”. In experiment [3] (5 mg/kg/day), the “cortical infarct volume alone” value is recorded as “not statistically significant”, the “striatal infarct volume alone” value was “not statistically significant” and the “total hemispheric infarct volume” value is recorded as “moderate but significant decrease; also recorded: reduced total hemispheric infarct volume”.
For the compound `O=C1CC(=O)N(c2cccc(-c3noc(=S)[nH]3)c2)c2cc(Br)c3ccccc3c2N1` [Compound 21d, 7-Bromo-5-(3-(5-thioxo-4,5-dihydro-1,2,4-oxadiazol-3-yl)phenyl)-1,5-dihydro-2H-naphtho[1,2-b][1,4]diazepine-2,4(3H)-dione triethylamine salt], the “off-target interactions at 45 receptors” value in experiment [2] is given as “no significant interactions”.
Turning to `O=C1CC(=O)N(c2cncc(-c3noc(=S)[nH]3)c2)c2ccc3ccccc3c2N1` [Compound 21t, 5-(5-(5-Thioxo-4,5-dihydro-1,2,4-oxadiazol-3-yl)pyridin-3-yl)-1,5-dihydro-2H-naphtho[1,2-b][1,4]diazepine-2,4(3H)-dione triethylamine salt], the inhibition at 30 µM on hP2X1R stood at 15%; on hP2X2/3R it was 25%; at hP2X3R it was 6%. For the same compound, the “hP2X4R inhibitory activity relative to 22a, in words” value at hP2X4R is “reduce”. The same compound yielded an IC50 at hP2X4R (agonist CTP 10 μM (~EC80)) of 14.6 µM.
In the case of `O=C1CC(=O)N(c2ccnc(-c3noc(=S)[nH]3)c2)c2ccc3ccccc3c2N1` [Compound 21u, 5-(2-(5-Thioxo-4,5-dihydro-1,2,4-oxadiazol-3-yl)pyridin-4-yl)-1,5-dihydro-2H-naphtho[1,2-b][1,4]diazepine-2,4(3H)-dione triethylamine salt], the inhibition at 10 µM on D3 dopamine receptor was 74 ± 10%. Moreover, the inhibition at 10 µM on H2 histamine receptor worked out at 89 ± 4%. Further, in experiment [3], the cortical infarct volume result is “significantly reduced”, the striatal infarct volume entry is on record as “no statistically significant decrease” and the “total hemispheric infarct volume” value was “significantly reduced”. Besides, the “neuroprotection based on total hemispheric infarct volume size” value in [3] (3 mg/kg) is listed as “significant neuroprotection”. In addition, in [4] (listed as MRS 4719), the “decline in fractional shortening (FS)” value was “less than those in vehicle-treated mice” and the “decline in left ventricular ejection fraction (EF)” value was “less than those in vehicle-treated mice”. Further, in experiment [4] (listed as MRS4719), the “decline in fractional shortening (FS)” value is “lesser degree of decline” and the “decline in left ventricular ejection fraction (EF)” value is listed as “lesser degree of decline”. Further, the “learning and memory, NORT” value in experiment [5] is “significant retention of memory; also recorded: reached to statistical significance”.
Consider `O=C1CC(=O)N(c2cccc(-c3noc(=S)[nH]3)n2)c2ccc3ccccc3c2N1` [Compound 21v, 5-(6-(5-Thioxo-4,5-dihydro-1,2,4-oxadiazol-3-yl)pyridin-2-yl)-1,5-dihydro-2H-naphtho[1,2-b][1,4]diazepine-2,4(3H)-dione triethylamine salt], for which the inhibition at 30 µM is at most 31% on hP2X1R, 15% at hP2X2/3R and 17% at hP2X3R. Besides, the “hP2X4R inhibitory activity relative to 22a, in words” value at hP2X4R is “reduce”. This compound gave an IC50 at hP2X4R (agonist CTP 10 μM (~EC80)) of 6.48 µM.
On to `O=C1CC(=O)N(c2cccc(-c3noc(=S)[nH]3)c2)c2ccc3ccccc3c2N1.[Na]` [Compound 22a, 5-(3-(5-Thioxo-4,5-dihydro-1,2,4-oxadiazol-3-yl)phenyl)-1,5-dihydro-2H-naphtho[1,2-b][1,4]diazepine-2,4(3H)-dione sodium salt], for which, in experiment [2], the “off-target interactions at 45 receptors” value was “no significant interactions”. The “potency in blocking mP2X4R effects in vitro” value at mP2X4R is “as potent in blocking mP2X4R effects in vitro as at hP2X4R”. For the same compound, the “in vivo efficacy in the mouse” value in the experiment on mouse is “considerable in vivo efficacy”.
Consider `CCN(CC)CC.O=C1CC(=O)N(c2cccc(-c3noc(=S)[nH]3)c2)c2cc(-c3ccccc3)c3ccccc3c2N1` [Compound 211, 7-Phenyl-5-(3-(5-thioxo-4,5-dihydro-1,2,4-oxadiazol-3-yl)phenyl)-1,5-dihydro-2H-naphtho[1,2-b][1,4]diazepine-2,4(3H)-dione triethylamine salt], for which the hP2X1R % inhib. at hP2X1R is 14%. Besides, on hP2X2/3R, the hP2X2/3R % inhib. was determined as 10%. The same compound came in with a hP2X3R % inhib. on hP2X3R of 11%. The same compound came in with a 50% inhibitory concentration (IC50) against hP2X4R of 20.7 µM.
